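Protocol summary: plate cells (96-well), add compound at 5 concentrations, incubate 48 h, interpolate endpoints linearly. GI50 = concentration required for 50% inhibition of growth.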 Active and inactive are the calls of the source. Rule as the data show it: active = GI50 up to about 1.1 µM and inactive = higher.
Columns and labels:
Assay in all cases: NCI tumour cell line growth inhibition, 48 h
ACHN = tested on: ACHN
DMS-114 = tested on: DMS-114
DMS-273 = tested on: DMS-273
HL-60 = tested on: HL-60
LXFL 529 = tested on: LXFL 529
MOLT-4 = tested on: MOLT-4
NCI-H23 = tested on: NCI-H23
NCI-H460 = tested on: NCI-H460
NCI-H522 = tested on: NCI-H522
OVCAR-3 = tested on: OVCAR-3
OVCAR-4 = tested on: OVCAR-4
SF-539 = tested on: SF-539
SK-MEL-2 = tested on: SK-MEL-2
SK-MEL-5 = tested on: SK-MEL-5
SK-OV-3 = tested on: SK-OV-3
SN12C = tested on: SN12C
SNB-19 = tested on: SNB-19
SW-620 = tested on: SW-620
TK-10 = tested on: TK-10
UO-31 = tested on: UO-31

Measured: GI50

CN(C)CCCNC(=O)c1cccc2ccccc12
inactive: ACHN > 100 µM | DMS-114 > 100 µM | DMS-273 > 100 µM | HL-60 12.7 µM | LXFL 529 > 100 µM | MOLT-4 > 100 µM | NCI-H23 > 100 µM | NCI-H460 > 100 µM | NCI-H522 > 100 µM | OVCAR-3 > 100 µM | OVCAR-4 > 100 µM | SF-539 > 100 µM | SK-MEL-2 > 100 µM | SK-MEL-5 > 100 µM | SK-OV-3 > 100 µM | SN12C > 100 µM | SNB-19 > 100 µM | SW-620 > 100 µM | TK-10 > 100 µM | UO-31 > 10 µM
